Measured values from patent publication US20240051978A1, “3-CYCLIC AMINE-INDOLE DERIVATIVES AS SEROTONERGIC AGENTS FOR THE TREATMENT OF CNS DISORDERS” (MINDSET PHARMA INC., priority 2020, published 2024).

Legend:
[1] = Liver microsomes stability, mouse; settings: for Remaining Percentage (%) 0 min / Remaining Percentage (%) 60 min: Mouse; for CLint scaled at 2 μM / half-life at 2 μM / microsomal CLint at 2 μM: male, mouse, microsomes
Procedure: (§1) The objective of this study was to estimate in vitro metabolic stability of 1-12 in pooled human and male mouse liver microsomes. The concentrations of parent compounds in reaction systems were evaluated by LC-MS/MS for estimating the stability in pooled human and male mouse liver microsomes. The in vitro intrinsic clearances of test compounds were determined as well.
(§2) A master solution in the “Incubation Plate” containing phosphate buffer, ultra-pure H2O, MgCl2 solution and liver microsomes was made according to Table 3. The mixture was pre-warmed at 37° C. water bath for 5 minutes.
(§3) 40 μL of 10 mM NADPH solution was added to each well. The final concentration of NADPH was 1 mM. The negative control samples were prepared by replacing NADPH with 40 μL of ultra-pure H2O. Samples were prepared in duplicate. Negative controls were prepared in singlet.
(§4) The reaction was started with the addition of 4 μL of 200 μM exemplary test compounds or control compounds to each master solution to get the final concentration of 2 μM. This study was performed in duplicate.
(§5) Aliquots of 50 μL were taken from the reaction solution at 0, 15, 30, 45 and 60 minutes. The reaction solutions were stopped by the addition of 4 volumes of cold methanol with IS (100 nM alprazolam, 200 nM imipramine, 200 nM labetalol and 2 μM ketoprofen). Samples were centrifuged at 3,220 g for 40 minutes. Aliquot of 90 μL of the supernatant was mixed with 90 μL of ultra-pure H2O and then was used for LC-MS/MS analysis.
(§6) LC/MS analysis was performed for all samples from this study using a Shimadzu liquid chromatograph separation system equipped with degasser DUG-20A5R; solvent delivery unit LC-30AD; system controller SIL-30AC; column oven CTO-30A; CTC Analytics HTC PAL System; Mass spectrometric analysis was performed using an Triple Quad™ 5500 instrument.
(§7) All calculations were carried out using Microsoft Excel. Peak area ratios of test compound to internal standard (listed in the below table) were determined from extracted ion chromatograms.
(§8) All calculations were carried out using Microsoft Excel. Peak areas were determined from extracted ion chromatograms. The slope value, k, was determined by linear regression of the natural logarithm of the remaining percentage of the parent drug vs. incubation time curve.
(§9) The in vitro half-life (in vitro t½) was determined from the slope value:
(§10) Conversion of the in vitro t½ (min) into the in vitro intrinsic clearance (in vitro CLint, in μL/min/mg proteins) was done using the following equation (mean of duplicate determinations): […]

[2] = molecular target: human 5-HT2A (h5-HT2A) receptor (Homo sapiens (Human), UniProt P28223); assay: FLIPR assay, human 5-HT2A receptor under agonist mode; format: cell-based; settings: FLIPR calcium
Procedure: I. Assessment of the Activated Effect of Exemplary Compounds of Formula I Targeting on Human 5-HT2A (h5-HT2A) Receptor Under Agonist Mode:
1. the Cells were cultured in cell culture medium (DMEM containing 10% FBS 1×penicillin-streptomycin 300 μg/ml G418 and 100 μg/ml hygromycin B) at 37° C., 5% (v/v) CO2.
2. One day before the assays, the cells were detached using TrypLE™ Express and cells were counted using cell counter.
3. 20000 cells/well were seeded in 30 μl/well culture medium to a 384-well cell plate and the cells were incubated overnight at 37° C., 5% (v/v) CO2.
4. On the assay day, 2× dye solution was prepared following the manual of the FLIPR® Calcium 6 Assay Kit: i. The dye was diluted with assay buffer(20 mM HEPES in 1×HBSS, PH7.4); ii. Probenecid was added to the final concentration of 5 mM; iii. Vortex vigorously for 1-2 minutes.
5. Medium was removed from cell plate by flicking the cell plate on towel papers.
6. 10 μl of assay buffer and 10 μl of 2× dye solution was added to each well of the cell plate.
7. The cell plate was placed on plate shaker, and the plate was agitated at 600 rpm for 2 minutes. The plate was incubated at 37° C. for 2 hours followed by additional 15-minute incubation at 25° C.
8. 3× compound in assay buffer was prepared: a. reference compounds were diluted to required concentration with DMSO. Compounds were added to a 384-well compound plate; b. Serial dilutions were performed; c. 10 mM test compounds were added to the compound plate, 3-fold serial dilutions were performed. d. […] 20 μl/well assay buffer was added to the compound plate; f. The plate was mixed on plate shaker for 2 mins;
i. The normalized fluorescence reading (RFU) was calculated as shown below, wherein Fmax and Fmin stand for maximum and minimum of calcium signal during defined time window: RFU=Fmax−Fmin
ii. The percentage activation was calculated by using following equation: […]
iii. EC50 was calculated by fitting % activation against log of compound concentrations with Hill equation using XLfit.

[3] = Liver microsomes stability, rat; settings: for Predicted hepatic CL: Rat liver microsomes, with NADPH; for Remaining Percentage (%) 0 min / Remaining Percentage (%) 60 min: Rat; for CLint scaled at 2 μM / half-life at 2 μM / microsomal CLint at 2 μM: rat, microsomes
Procedure: as §1, §2, §3, §4, §5, §6, §7, §8, §9, §10

[4] = Liver microsomes stability, human; settings: for Predicted hepatic CL: Human liver microsomes, with NADPH; for Remaining Percentage (%) 0 min / Remaining Percentage (%) 60 min: Human; for CLint scaled at 2 μM / half-life at 2 μM / microsomal CLint at 2 μM: human, microsomes
Procedure: as §1, §2, §3, §4, §5, §6, §7, §8, §9, §10

human 5-HT2A receptor = human 5-HT2A receptor (Homo sapiens (Human), UniProt P28223); assay: Radioligand binding assay ([3H]-ketanserin) on human 5-HT2A receptor; settings: [3H]-ketanserin competition; read-out: h5-HT2A IC50
Procedure: • i. The assay buffer was prepared following the table below;
• ii. 8 doses of reference and exemplary test compounds were prepared starting from 10 mM stock solution as requested by 5-fold serial dilutions with 100%; • iii. (v/v) DMSO was prepared: a. 50 μl/well of 0.5% (v/v) PEI was added to UniFilter-96 GF/B plates. The plates were sealed and incubates at 4° C. for 3 hrs; b. After incubation, the plates were washed 3 times with ice-cold wash buffer (50 mM Tris, pH7.4); • iv. Preparation of assay plates: a. Cell membrane was diluted with assay buffer and 330 μl/well was added to 96 round deep well plates to reach a concentration of 20 μg/well; b. 8 concentrations of reference or exemplary test compounds were prepared and added 110 μl/well to 96 round deep well plates; c. [3H]-ketanserin was diluted with assay buffer to 5 nM (5× final concentration) and added 110 μl/well to 96 round deep well plates. • v. The plate were centrifuged at 1000 rpm for 30 secs and then agitated at 600 rpm, R.T. for 5 min. • vi. The plates were sealed and incubated at 27° C. for 90 min. • vii. The incubation was stopped by vacuum filtration onto GF/B filter plates followed by 4 times washing with ice-cold wash buffer (50 mM Tris, pH7.4). • vii. […] The filter plates were sealed and 40 μl/well of scintillation cocktail added. • x. The plate was read by using a Microbeta2 microplate counter.
For reference and exemplary test compounds, the results are expressed as % Inhibition, using the normalization equation: N=100−100×(U−C2)/(C1−C2), where U is the unknown value, C1 is the average of high controls, and C2 is the average of low controls. The IC50 was determined by fitting percentage of inhibition as a function of compound concentrations with Hill equation using XLfit.

[5] = Mouse liver microsomes, with NADPH

SMILES	Predicted hepatic CL [1, 5] [mL/min/kg]	Remaining Percentage (%) 0 min ([1]; With NADPH) [%]	Remaining Percentage (%) 60 min ([1]; With NADPH) [%]	Remaining Percentage (%) 0 min ([1]; Without NADPH) [%]	Remaining Percentage (%) 60 min ([1]; Without NADPH) [%]	EC50 [2] [µM]	Predicted hepatic CL [3] [mL/min/kg]	Remaining Percentage (%) 0 min ([3]; With NADPH) [%]	Remaining Percentage (%) 60 min ([3]; With NADPH) [%]	Remaining Percentage (%) 0 min ([3]; Without NADPH) [%]	Remaining Percentage (%) 60 min ([3]; Without NADPH) [%]	CLint scaled at 2 μM [3] [mL/min/kg]	half-life at 2 μM [3] [h]	microsomal CLint at 2 μM [3] [µL/min/mg]	Predicted hepatic CL [4] [mL/min/kg]	Remaining Percentage (%) 0 min ([4]; With NADPH) [%]	Remaining Percentage (%) 60 min ([4]; With NADPH) [%]	Remaining Percentage (%) 0 min ([4]; Without NADPH) [%]	Remaining Percentage (%) 60 min ([4]; Without NADPH) [%]	CLint scaled at 2 μM [4] [mL/min/kg]	also measured
[2H]C([2H])N1CCC(c2c[nH]c3cccc(O)c23)C1 (stereo not shown) [Compound I-32, 3-(1-(methyl-d2)pyrrolidin-3-yl)-1H-indol-4-ol]	18.85	100.00	84.91	100.00	116.03	< 1	0.96	100.00	98.37	100.00	92.79	0.98	42.2	0.55	3.99	100.00	88.84	100.00	96.34	4.95	CLint scaled at 2 μM [1]: 23.9 mL/min/kg; half-life at 2 μM [1]: 4.24 h; microsomal CLint at 2 μM [1]: 5.45 µL/min/mg; half-life at 2 μM [4]: 5.86 h; microsomal CLint at 2 μM [4]: 3.94 µL/min/mg; IC50 (human 5-HT2A receptor): 1 to 10 µM
[2H]C1([2H])CC(c2c[nH]c3cccc(O)c23)C([2H])([2H])N1 (stereo not shown) [Compound I-33, 3-(pyrrolidin-3-yl-2,2,5,5-d4)-1H-indol-4-ol]	0.00	100.00	103.45	100.00	118.32	> 10	15.15	100.00	70.49	100.00	105.30	20.9	1.98	11.7	1.24	100.00	96.89	100.00	115.64	1.32	T1/2 (min) ([1]; Mouse liver microsomes, with NADPH, 2 μM): ∞; half-life at 2 μM [4]: 22 h; microsomal CLint at 2 μM [4]: 1.05 µL/min/mg; IC50 (human 5-HT2A receptor): < 1 µM
[2H]C1([2H])CC(c2c[nH]c3cccc(O)c23)C([2H])([2H])N1C (stereo not shown) [Compound I-34, 3-(1-methylpyrrolidin-3-yl-2,2,5,5-d4)-1H-indol-4-ol]	38.03	100.00	63.66	100.00	96.60	< 1	23.24	100.00	51.06	100.00	85.53	40.1	1.03	22.4	4.02	100.00	88.74	100.00	80.14	4.99	CLint scaled at 2 μM [1]: 65.9 mL/min/kg; half-life at 2 μM [1]: 1.53 h; microsomal CLint at 2 μM [1]: 15.1 µL/min/mg; half-life at 2 μM [4]: 5.8 h; microsomal CLint at 2 μM [4]: 3.98 µL/min/mg; IC50 (human 5-HT2A receptor): 1 to 10 µM
